The values below come from paper PMC4581321, “Inhibitory Effects of Amorphigenin on the Mitochondrial Complex I of Culex pipiens pallens Coquillett (Diptera: Culicidae)” (International Journal of Molecular Sciences, 2015).

The term LC50 denotes the concentration lethal to half of the exposed cells or organisms.

≈ marks a conversion by molar mass, not a printed value. Where two headings read alike, the source gives them in different places.

Data set [1] deals with 3th instar larvae of Bombyx mori. Conditions: cited from earlier work; for LC50: 3th instar larvae.
The subject of data set [2] is mammalian NADH-ubiquinone reductase. Set-up: method as in PMID 7925463. The settings on record: relative to rotenone; cited from earlier work.
The subject of data set [3] is larvae of Culex pipiens pallens. Set-up: method as in PMID 25690287. The settings on record: cited from earlier work.
In data set [4] the test system is mitochondrial complex I of Cx. pipiens pallens. The data set is described as follows: Inhibition type and constants of mitochondrial complex I (enzyme-concentration plots, Lineweaver-Burk plots). The format is biochemical, Culex pipiens pallens. Conditions: for inhibition type: Lineweaver-Burk plots, NADH and endogenous ubiquinone as substrates; for reversibility of inhibition: enzyme activity vs enzyme concentration plots. The source says:
The inhibition effect on the mitochondrial complex I by amorphigenin and rotenone was also studied. […] The plots yielded straight lines passing through the origin.
The inhibitory kinetics of the mitochondrial complex I by amorphigenin and rotenone were studied by Lineweaver–Burk plots. […] Under the experimental conditions employed, the oxidative reaction of NADH by the mitochondrial complex I followed Michaelis–Menten kinetics. The double-reciprocal plots yielded a family of straight lines with different slopes and intercepts but they intersected one another in the second quadrant. […] Equilibrium constants for inhibitor binding with the free enzyme (KI) and with the enzyme-substrate complex (KIS) can be calculated according to the Foumulations (1) and (2) based on the slope and the vertical intercept against the concentration of inhibitors in Figure 3, respectively. (1) Slope=Ks/Vm(1+[I]/KI) (2) Intercept=1/Vm(1+[I]/KIS)
Different concentrations of NADH were incubated with the mitochondria and assay buffer to examine the enzyme kinetics of NADH with and without the addition of various concentrations of rotenoids. The inhibition type of the compounds on the enzyme was assayed by Lineweaver-Burk plots. The inhibition constant was determined by plots of the apparent 1/Vm or Km/Vm versus concentration of the inhibitor [40, 58].

The test system is the same in data set [5]. The data set can be described thus: In vitro inhibition of mitochondrial complex I activity (NADH oxidation at 340 nm, isolated larval mitochondria). The format is biochemical, Culex pipiens pallens. The settings on record: NADH substrate; for IC50: isolated mitochondria, read-out: IC50 (μmol/L), in vitro. How it is done: The mitochondria of the fourth instar larvae of Cx. pipiens pallens were isolated according to the method of Akbar et al. with suitable modifications. The larvae were washed in a cold extraction medium (0.25 M sucrose solution containing 0.25% defatted BSA), then homogenized in a Potter–Elvehjem homogenizer under cold conditions. The homogenate was filtered through a moist muslin cloth and the filtrate centrifuged at 1000× g for 15 min at 4 °C. The residue was re-suspended in the extraction medium and centrifuged at 1000× g for 15 min at 4 °C. The supernatants from both centrifugations were combined and centrifuged at 12,000× g for 15 min at 4 °C. The mitochondrial pellet was re-suspended in the extraction medium, and stored at −80 °C until used. The protein concentration was determined by Smith’s method using BSA as the standard.
The mitochondrial complex I activity of Cx. pipiens pallens was determined as described by Birch-Machin et al. with adaptations for a 96-well format. It is well known that the mitochondrial complex I has two substrates, NADH and ubiquinone. […] The activity was measured by following the decrease in absorbance due to the oxidation of NADH at 340 nm with 425 nm as the reference wavelength. In brief, 20 μL of mitochondria and 160 μL of assay buffer containing 25 mM phosphate buffer (pH 7.2), 5 mM MgCl2, 2 mM NaN3 and 2.5 mg/mL BSA were added to each well of the 96-well plate, then the microplate was incubated for 20 min at 37 °C in a microplate reader (Spectramax 190 plate reader; Molecular Devices, Sunnyvale, CA, USA). Finally, the reaction was initiated by the addition of 10 μL of 0.13 mM NADH and measured for 5 min.
For the assay of in vitro inhibition of the mitochondrial complex I activities, 10 μL of different concentrations each of amorphigenin and rotenone were prepared in alcohol and diluted in 25 mM phosphate buffer (pH 7.2), then mixed with 10 μL of the mitochondria. The enzyme activity was immediately determined by the method as described above. For negative controls, 10 μL of 25 mM phosphate buffer (pH 7.2) instead of amorphigenin or rotenone were used in the assays. The inhibitory extent of the compounds was expressed as the inhibitor concentrations leading to 50% of the enzyme activity reduction (IC50).
Applying Microsoft Excel 2003 software (Microsoft, Redmond, WA, USA), the average enzyme activitie results, adjusted by Abbott, were subjected to probit analysis to calculate IC50 and correlation coefficient.

In data set [6] the test system is bovine heart mitochondrial complex I. The settings on record: cited from earlier work.
Data set [7] deals with mitochondrial complex I of Cx. pipiens pallens. The data set can be described thus: In vivo inhibition of mitochondrial complex I activity (fourth-instar larvae exposed 24 h, then mitochondria isolated). Set-up: species or system Culex pipiens pallens. The settings on record: for decrease of mitochondrial complex I activity compared with control: 24 h.
Data set [8] has as its system acetylcholinesterase enzyme. Set-up: method as in doi:10.1016/j.pestbp.2011.12.002. Conditions: cited from earlier work.
On the set-up of data set [9]: method as in earlier work. The settings on record: summer sunlight; cited from earlier work.
The subject of data set [10] is NADH-ubiquinone reductase of bovine heart submitochondrial particles. Set-up: method as in PMID 7925463. The settings on record: against exogenous quinine DB and DPB; cited from earlier work.
Data set [11] has as its system mitochondrial complex I prepared from a pig's heart. Set-up: method as in doi:10.1016/S0926-6593(65)80060-1. Conditions: cited from earlier work.
For data set [12], the system named is mitochondrial complex I from submitochondrial particles of blow fly flight-muscle. Set-up: method as in doi:10.1016/S0960-894X(00)80645-9. Conditions: cited from earlier work.
Data set [13] deals with fourth instar larvae of A. aegypti. Set-up: method as in doi:10.1016/S0031-9422(00)83185-4. The settings on record: 10 ppm; cited from earlier work.

On to `C=C(C)[C@@H]1Cc2c(ccc3c2O[C@@H]2COc4cc(OC)c(OC)cc4[C@@H]2C3=O)O1` [5′β- epirotenone], for which the LC50 in data set [1] was 225.70 mg/L (≈ 572 µM). Besides, in data set [1] (relative to rotenone), the “times less toxic than rotenone” value is listed as “about 24 times”. For the same compound, the “times less inhibiting than rotenone” value in data set [2] was “about 1000 times”.
In the case of `C=C(CO)[C@H]1Cc2c(ccc3c2O[C@@H]2COc4cc(OC)c(OC)cc4[C@@H]2C3=O)O1` [Amorphigenin], in [3], the “LC50, larvicidal activity” value was 4.29 mg/L (≈ 10.5 µM). Also, the “LC90, larvicidal activity” value in data set [3] is 11.27 mg/L (≈ 27.5 µM). Further, in data set [4], the inhibition type entry is “mixed-I type”. Besides, the reversibility of inhibition entry in [4] is recorded as “reversible”. For the same compound, the “decrease of mitochondrial complex I activity compared with control” value amounted to 27.38% in [5] (2 μmol/L); 50.00% in [5] (3 μmol/L); 70.24% in data set [5] (4 μmol/L); 1.52 fold in data set [7] (1.25 μmol/L, NADH substrate); 1.78 fold in data set [7] (2.5 μmol/L, NADH substrate); 2.43 fold in data set [7] (5 μmol/L, NADH substrate). The IC50 came to 2.86 µmol/L in data set [5] and 2.43 µmol/L in data set [7] (fourth-instar larvae exposed 24 h, NADH substrate, read-out: IC50 (μmol/L), in vivo). The “inhibitory potency compared with rotenone” value in [6] is on record as “comparable with rotenone”.
With `Cc1ccc(C(C)C)cc1O` [Carvacrol, carvacrol], the “inhibition of acetylcholinesterase enzyme” value was “slight inhibition” in [8] (house flies, ticks and cockroaches); “did not inhibit” in data set [8] (mosquito).
For the compound `C=C(C)[C@@H]1CCC2=CC(=O)C[C@@H](C)[C@]2(C)C1` [Nootkatone, nootkatone], in [8] (any of the four arthropod models tested), the “inhibition of acetylcholinesterase enzyme” value is given as “did not inhibit”.
Regarding `C=C(C)[C@H]1Cc2c(ccc3c2O[C@@H]2COc4cc(OC)c(OC)cc4[C@@H]2C3=O)O1` [Rotenone, reference compound], the LC50 in data set [1] is 9.33 mg/L (≈ 23.7 µM). Further, the “time until all toxicity is lost” value in data set [9] is 2 to 3 days. Also, the inhibition type entry is given as “noncompetitive” in data set [10], “mixed-I type” in data set [4] and “reversible competitive inhibitor” in [12]. The “in vitro IC50” value in data set [11] was 1.8 × 10^−5 μmol/mg protein. The reversibility of inhibition result in data set [4] is reported as “reversible”. Besides, the “decrease of mitochondrial complex I activity compared with control” value in [5] (3 μmol/L) is “significantly decreased”; in [5] (4 μmol/L), “significantly decreased”; in data set [7] (1.25 μmol/L, NADH substrate), 1.45 fold; in [7] (2.5 μmol/L, NADH substrate) it was 1.77 fold; in [7] (5 μmol/L, NADH substrate) it was 2.41 fold. The IC50 in data set [5] is 3.14 µmol/L; in data set [7] (read-out: IC50 (μmol/L), in vivo, fourth-instar larvae exposed 24 h, NADH substrate), 2.52 µmol/L.
Consider `C=C(C)C1Cc2c(ccc3c2OC2COc4cc(OC)c(OC)cc4C2C3O)O1` (stereo not shown) [rotenone reduced with NaBH4], for which, in data set [11], the “in vitro IC50” value was 2.0 × 10^−5 μmol/mg protein.
amorphigenin 8′-β-glucoside: in [13], the “loss of the fourth instar larvae” value was 85% and the pupae formation entry is reported as “without the formation of pupae”.
In the case of arylazidoamorphigenin, in data set [6], the “inhibitory potency compared with rotenone” value was “comparable with those of rotenone”.
